Biological target: human recombinant KAT-II (Homo sapiens (Human), UniProt Q8N5Z0)
Test: KAT-II inhibitory test
Assay type: biochemical
Details: 3.0 μmol/L kynurenine, 37° C., 1 hr, pH 8.0; kynurenic acid quantified by HPLC
How it was run: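 Kynurenic acid formation was measured by HPLC fluorescence (354 nm excitation, 460 nm emission) against an external standard curve. The substrate was 3.0 μmol/L kynurenine with 10 μmol/L pyridoxal phosphate, at pH 8.0 Tris-acetate, 37 °C for 1 hr, using 2.0 ng/μL amylose-purified N-terminal His/MBP-tagged recombinant enzyme. Duplicate measurements were made per concentration.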

human recombinant KAT-II, sequence (Q8N5Z0 30-425): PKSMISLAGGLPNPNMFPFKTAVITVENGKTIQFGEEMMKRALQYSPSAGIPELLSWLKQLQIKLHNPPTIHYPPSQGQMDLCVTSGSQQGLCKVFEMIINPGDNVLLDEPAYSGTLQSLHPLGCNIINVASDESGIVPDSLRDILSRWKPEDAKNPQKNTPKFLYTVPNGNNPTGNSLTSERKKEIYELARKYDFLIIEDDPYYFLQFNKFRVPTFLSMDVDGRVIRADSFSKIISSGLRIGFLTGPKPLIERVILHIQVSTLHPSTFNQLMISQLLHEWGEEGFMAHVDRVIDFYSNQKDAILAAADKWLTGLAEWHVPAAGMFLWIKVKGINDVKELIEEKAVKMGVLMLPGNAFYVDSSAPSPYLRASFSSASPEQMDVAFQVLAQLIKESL

| SMILES | IC50 |
| --- | --- |
| Cc1nc2sc(N3CCC[C@@H]3C(=O)NCc3ccccc3)nn2c(=O)c1-c1ccccc1 [Example 648, (R)-N-benzyl-1-(7-methyl-5-oxo-6-phenyl-5H-[1,3,4]thiadiazolo[3,2-a]pyrimidin-2-yl)pyrrolidine-2-carboxamide] | 46 nM |
| CCc1nc2sc(N3CC(F)(F)C[C@@H]3C(=O)NCc3ccccc3)nn2c(=O)c1F [Example 650, (R)-N-benzyl-1-(7-ethyl-6-fluoro-5-oxo-5H-[1,3,4]thiadiazolo[3,2-a]pyrimidin-2-yl)-4,4-difluoropyrrolidine-2-carboxamide] | 2200 nM |
| CC(C)c1cc(=O)n2nc(N3CCC[C@@H]3C(=O)NCc3ccccn3)sc2n1 [Example 653, (R)-1-[5-oxo-7-(propan-2-yl)-5H-[1,3,4]thiadiazolo[3,2-a]pyrimidin-2-yl]-N-[(pyridin-2-yl)methyl]pyrrolidine-2-carboxamide] | 190 nM |
| O=C(NC1(c2ccccc2)CC1)[C@H]1CCCN1c1nn2c(=O)c3ccccc3nc2s1 [Example 655, (R)-1-(5-oxo-5H-[1,3,4]thiadiazolo[2,3-b]quinazolin-2-yl)-N-(1-phenylcyclopropyl)pyrrolidine-2-carboxamide] | 29 nM |
| Cc1cc2c(=O)n3nc(N4CCC[C@@H]4C(=O)NCc4ccccc4)sc3nc2s1 [Example 656, (R)-N-benzyl-1-(6-methyl-8-oxo-8H-[1,3,4]thiadiazolo[3,2-a]thieno[2,3-d]pyrimidin-2-yl)pyrrolidine-2-carboxamide] | 44 nM |
| CCc1nc2sc(N3CCC[C@@H]3C(=O)NCc3cc(C)ccn3)nn2c(=O)c1F [Example 664, (R)-1-(7-ethyl-6-fluoro-5-oxo-5H-[1,3,4]thiadiazolo[3,2-a]pyrimidin-2-yl)-N-[(4-methylpyridin-2-yl)methyl]pyrrolidine-2-carboxamide] | 560 nM |
| CCc1nc2sc(N3CCC[C@@H]3C(=O)NCc3ccccc3Cl)nn2c(=O)c1F [Example 678, (R)-N-(2-chlorobenzyl)-1-(7-ethyl-6-fluoro-5-oxo-5H-[1,3,4]thiadiazolo[3,2-a]pyrimidin-2-yl)pyrrolidine-2-carboxamide] | 19 nM |
| CCc1nc2sc(N3CCC[C@@H]3C(=O)NCc3ncccn3)nn2c(=O)c1F [Example 684, (R)-1-(7-ethyl-6-fluoro-5-oxo-5H-[1,3,4]thiadiazolo[3,2-a]pyrimidin-2-yl)-N-[(pyrimidin-2-yl)methyl]pyrrolidine-2-carboxamide] | 11000 nM |
| CCc1nc2sc(N3CCC[C@@H]3C(=O)NCc3cnc(C)cn3)nn2c(=O)c1F [Example 685, (R)-1-(7-ethyl-6-fluoro-5-oxo-5H-[1,3,4]thiadiazolo[3,2-a]pyrimidin-2-yl)-N-[(5-methylpyrazin-2-yl)methyl]pyrrolidine-2-carboxamide] | 2200 nM |
| CCc1nc2sc(N3CCC[C@@H]3C(=O)NCc3nnc4ccccn34)nn2c(=O)c1F [Example 686, (R)-1-(7-ethyl-6-fluoro-5-oxo-5H-[1,3,4]thiadiazolo[3,2-a]pyrimidin-2-yl)-N-[([1,2,4]triazolo[4,3-a]pyridin-3-yl)methyl]pyrrolidine-2-carboxamide] | 32000 nM |
| CCc1nc2sc(N3CCC[C@@H]3C(=O)NCc3ccc(Cl)cc3Cl)nn2c(=O)c1F [Example 688, (R)-N-(2,4-dichlorobenzyl)-1-(7-ethyl-6-fluoro-5-oxo-5H-[1,3,4]thiadiazolo[3,2-a]pyrimidin-2-yl)pyrrolidine-2-carboxamide] | 29 nM |
| Cc1nc2sc(N3CCC[C@@H]3C(=O)NCc3ccccc3)nn2c(=O)c1C1=CCOCC1 [Example 698, (R)-N-benzyl-1-[6-(3,6-dihydro-2H-pyran-4-yl)-7-methyl-5-oxo-5H-[1,3,4]thiadiazolo[3,2-a]pyrimidin-2-yl]pyrrolidine-2-carboxamide] | 67 nM |
| CCc1cc(=O)n2nc(N3CCC[C@@H]3C(=O)NCc3ccccc3)sc2c1 [Example 699, (R)-N-benzyl-1-(7-ethyl-5-oxo-5H-[1,3,4]thiadiazolo[3,2-a]pyridin-2-yl)pyrrolidine-2-carboxamide] | 230 nM |
| CCc1c(Cl)c(=O)n2nc(N3CCC[C@@H]3C(=O)NCc3ccccc3)sc2c1Cl [Example 701, (R)-N-benzyl-1-(6,8-dichloro-7-ethyl-5-oxo-5H-[1,3,4]thiadiazolo[3,2-a]pyridin-2-yl)pyrrolidine-2-carboxamide] | 50 nM |
| CCc1nc2ccc(N3CCC[C@@H]3C(=O)NCc3ccccc3)nc2c(=O)n1C [Example 703, (R)-N-benzyl-1-(2-ethyl-3-methyl-4-oxo-3,4-dihydropyrido[3,2-d]pyrimidin-6-yl)pyrrolidine-2-carboxamide] | 110 nM |
| Cc1nc2ccc(N3CCC[C@@H]3C(=O)NCc3ccccc3)nc2c(=O)n1CC(F)(F)F [Example 706, (R)-N-benzyl-1-[2-methyl-4-oxo-3-(2,2,2-trifluoroethyl)-3,4-dihydropyrido[3,2-d]pyrimidin-6-yl]pyrrolidine-2-carboxamide] | 170 nM |
| Cn1c(C(F)(F)F)nc2ccc(N3CCC[C@@H]3C(=O)NCc3ccccc3)nc2c1=O [Example 707, (R)-N-benzyl-1-(3-methyl-4-oxo-2-trifluoromethyl-3,4-dihydropyrido[3,2-d]pyrimidin-6-yl)pyrrolidine-2-carboxamide] | 680 nM |
| O=C(NCc1ccccc1)[C@H]1CCCN1c1ccc2nc(C3(Cl)CC3)[nH]c(=O)c2n1 [Example 711, (R)-N-benzyl-1-[2-(1-chlorocyclopropyl)-4-oxo-3,4-dihydropyrido[3,2-d]pyrimidin-6-yl]pyrrolidine-2-carboxamide] | 190 nM |
| CC(C)c1nc2ccc(N3CCC[C@@H]3C(=O)NCc3ccccc3)nc2c(=O)[nH]1 [Example 712, (R)-N-benzyl-1-[4-oxo-2-(propan-2-yl)-3,4-dihydropyrido[3,2-d]pyrimidin-6-yl]pyrrolidine-2-carboxamide] | 62 nM |
| O=C(NCc1ccccc1)[C@H]1CCCN1c1ccc2nc(-c3ccccc3F)[nH]c(=O)c2n1 [Example 713, (R)-N-benzyl-1-[2-(2-fluorophenyl)-4-oxo-3,4-dihydropyrido[3,2-d]pyrimidin-6-yl]pyrrolidine-2-carboxamide] | 88 nM |
| O=C(NCc1ccccc1)[C@H]1CCCN1c1ccc2nc(-c3ccccc3)cc(=O)n2n1 [Example 714, (R)-N-benzyl-1-(4-oxo-2-phenyl-4H-pyrimido[1,2-b]pyridazin-7-yl)pyrrolidine-2-carboxamide] | 590 nM |
| CCCc1cc(=O)n2nc(N3CCC[C@@H]3C(=O)NC3(c4ccccc4)CC3)ccc2n1 [Example 718, (R)-1-(4-oxo-2-propyl-4H-pyrimido[1,2-b]pyridazin-7-yl)-N-(1-phenylcyclopropyl)pyrrolidine-2-carboxamide] | 310 nM |
| CC(C)c1cc(=O)n2nc(N3CCC[C@@H]3C(=O)NCc3ccccc3)ccc2n1 [Example 720, (R)-N-benzyl-1-[4-oxo-2-(propan-2-yl)-4H-pyrimido[1,2-b]pyridazin-7-yl]pyrrolidine-2-carboxamide] | 550 nM |
| CC(C)c1nc2ccc(N3CCC[C@@H]3C(=O)NCc3ccccc3)nn2c(=O)c1F [Example 722, (R)-N-benzyl-1-[3-fluoro-4-oxo-2-(propan-2-yl)-4H-pyrimido[1,2-b]pyridazin-7-yl]pyrrolidine-2-carboxamide] | 89 nM |
| O=C(NCc1ccccc1)[C@H]1CCCN1c1nc2c(=O)[nH]c(N3CCCCC3)nc2s1 [Example 728, (R)-N-benzyl-1-[7-oxo-5-(piperidin-1-yl)-6,7-dihydro[1,3]thiazolo[5,4-d]pyrimidin-2-yl]pyrrolidine-2-carboxamide] | 24 nM |
